Literature values in US20110313191A1, “Preparation of Pharmaceutical Salts of 3-0-(3',3'-Dimethylsuccinyl) Betulinic Acid” (Myrexis, Inc., priority 2005, published 2011).

Tested on: HIV
Settings: comparison with regioisomer 3-O-2′,2′-DSB; literature statement

In the case of C=C(C)[C@@H]1CC[C@]2(C(=O)O)CC[C@]3(C)[C@H](CC[C@@H]4[C@@]5(C)CC[C@H](OC(=O)CC(C)(C)C(=O)O)C(C)(C)[C@@H]5CC[C@]43C)[C@@H]12 [3-O-3′,3′-DSB, 3-O-(3′,3′-dimethylsuccinyl)betulinic acid], the “EC50 of 3-O-3′,3′-DSB relative to that of 3-O-2′,2′-DSB” value is given as “about four orders of magnitude lower”.
